From the NIST ThermoML archive (doi:10.1016/j.fluid.2008.03.004)

Assay: xn = mol fraction of the nth substance listed
Conditions: 101 kPa, Liquid; for speed of sound: Sing-around technique in a fixed-path interferometer

CCOC(C)(C)C [2-ethoxy-2-methylpropane] + Cc1cccc(C)c1
Conditions | mass density [kg/m3] | speed of sound [m/s]
288.15 K, x1 = 0.05 | 862.187 | 1345.6
288.15 K, x1 = 0.099 | 856.037 | 1332.2
288.15 K, x1 = 0.2 | 843.698 | 1303.2
288.15 K, x1 = 0.3 | 831.159 | 1274.6
288.15 K, x1 = 0.4 | 818.865 | 1245.5
288.15 K, x1 = 0.497 | 806.713 | 1217.2
288.15 K, x1 = 0.598 | 794.326 | 1188.6
288.15 K, x1 = 0.698 | 782.295 | 1161.7
288.15 K, x1 = 0.8 | 770.134 | 1133.6
288.15 K, x1 = 0.898 | 757.936 | 1106.8
288.15 K, x1 = 0.95 | 751.668 | 1092.8
288.15 K, x1 = 1 | 744.955 | 1076.4
290.65 K, x1 = 0.05 | 860.034 | 1334.7
290.65 K, x1 = 0.099 | 853.866 | 1321.5
290.65 K, x1 = 0.2 | 841.488 | 1292.6
290.65 K, x1 = 0.3 | 828.907 | 1263.8
290.65 K, x1 = 0.4 | 816.576 | 1234.8
290.65 K, x1 = 0.497 | 804.386 | 1206.4
290.65 K, x1 = 0.598 | 791.955 | 1177.8
290.65 K, x1 = 0.698 | 779.883 | 1150.8
290.65 K, x1 = 0.8 | 767.68 | 1122.5
290.65 K, x1 = 0.898 | 755.44 | 1096
290.65 K, x1 = 0.95 | 749.148 | 1081.9
290.65 K, x1 = 1 | 742.482 | 1065.1
293.15 K, x1 = 0.05 | 857.873 | 1324.1
293.15 K, x1 = 0.099 | 851.684 | 1310.9
293.15 K, x1 = 0.2 | 839.267 | 1282
293.15 K, x1 = 0.3 | 826.644 | 1253.1
293.15 K, x1 = 0.4 | 814.272 | 1224.1
293.15 K, x1 = 0.497 | 802.042 | 1195.6
293.15 K, x1 = 0.598 | 789.571 | 1167
293.15 K, x1 = 0.698 | 777.456 | 1140
293.15 K, x1 = 0.8 | 765.209 | 1111.5
293.15 K, x1 = 0.898 | 752.927 | 1085.2
293.15 K, x1 = 0.95 | 746.612 | 1070.8
293.15 K, x1 = 1 | 739.947 | 1053.7
295.65 K, x1 = 0.05 | 855.708 | 1313.4
295.65 K, x1 = 0.099 | 849.502 | 1300.3
295.65 K, x1 = 0.2 | 837.044 | 1271.3
295.65 K, x1 = 0.3 | 824.379 | 1242.3
295.65 K, x1 = 0.4 | 811.966 | 1213.3
295.65 K, x1 = 0.497 | 799.693 | 1184.7
295.65 K, x1 = 0.598 | 787.18 | 1156
295.65 K, x1 = 0.698 | 775.026 | 1129.1
295.65 K, x1 = 0.8 | 762.735 | 1100.5
295.65 K, x1 = 0.898 | 750.406 | 1074.1
295.65 K, x1 = 0.95 | 744.068 | 1059.8
295.65 K, x1 = 1 | 737.374 | 1042.2
298.15 K, x1 = 0.05 | 853.541 | 1302.9
298.15 K, x1 = 0.099 | 847.315 | 1289.8
298.15 K, x1 = 0.2 | 834.815 | 1260.8
298.15 K, x1 = 0.3 | 822.108 | 1231.6
298.15 K, x1 = 0.4 | 809.656 | 1202.6
298.15 K, x1 = 0.497 | 797.343 | 1173.8
298.15 K, x1 = 0.598 | 784.785 | 1145.1
298.15 K, x1 = 0.698 | 772.587 | 1118.2
298.15 K, x1 = 0.8 | 760.251 | 1089.5
298.15 K, x1 = 0.898 | 747.878 | 1063
298.15 K, x1 = 0.95 | 741.515 | 1048.7
298.15 K, x1 = 1 | 734.806 | 1031
300.65 K, x1 = 0.05 | 851.372 | 1292.5
300.65 K, x1 = 0.099 | 845.128 | 1279.3
300.65 K, x1 = 0.2 | 832.584 | 1250.2
300.65 K, x1 = 0.3 | 819.837 | 1221
300.65 K, x1 = 0.4 | 807.341 | 1191.8
300.65 K, x1 = 0.497 | 794.987 | 1163.1
300.65 K, x1 = 0.598 | 782.385 | 1134.2
300.65 K, x1 = 0.698 | 770.145 | 1107.3
300.65 K, x1 = 0.8 | 757.762 | 1078.4
300.65 K, x1 = 0.898 | 745.343 | 1051.9
300.65 K, x1 = 0.95 | 738.954 | 1037.6
300.65 K, x1 = 1 | 732.225 | 1019.8
303.15 K, x1 = 0.05 | 849.201 | 1282.1
303.15 K, x1 = 0.099 | 842.934 | 1268.9
303.15 K, x1 = 0.2 | 830.351 | 1239.8
303.15 K, x1 = 0.3 | 817.559 | 1210.3
303.15 K, x1 = 0.4 | 805.022 | 1181.2
303.15 K, x1 = 0.497 | 792.628 | 1152.3
303.15 K, x1 = 0.598 | 779.979 | 1123.3
303.15 K, x1 = 0.698 | 767.695 | 1096.3
303.15 K, x1 = 0.8 | 755.266 | 1067.5
303.15 K, x1 = 0.898 | 742.8 | 1040.8
303.15 K, x1 = 0.95 | 736.382 | 1026.5
303.15 K, x1 = 1 | 729.647 | 1008.6
305.65 K, x1 = 0.05 | – | 1271.7
305.65 K, x1 = 0.099 | – | 1258.6
305.65 K, x1 = 0.2 | – | 1229.3
305.65 K, x1 = 0.3 | – | 1199.8
305.65 K, x1 = 0.4 | – | 1170.5
305.65 K, x1 = 0.497 | – | 1141.6
305.65 K, x1 = 0.598 | – | 1112.5
305.65 K, x1 = 0.698 | – | 1085.4
305.65 K, x1 = 0.8 | – | 1056.5
305.65 K, x1 = 0.898 | – | 1029.8
305.65 K, x1 = 0.95 | – | 1015.3
305.65 K, x1 = 1 | – | 997.52
